Experimental data taken from patent publication US20170107179A1 (Tetraphase Pharmaceuticals, Inc., priority 2010, published 2017).
≈ marks a conversion by molar mass, not a printed value. Like-named read-outs stand apart in the source and are kept apart here.

Experiments:
[1] = system: subset of Gram-negative and Gram-positive isolates; test: Minimum bactericidal concentration (MBC), CLSI M26-A, selected strains (Table 11)
H. influenzae HI551 = test: Rat lung infection model; format: in vivo; settings: H. influenzae intratracheal
S. aureus Smith = test: Mouse systemic infection (septicemia) model, CD-1 mice; settings: Staphylococcus aureus, in Mus musculus, 48 h
Gram-positive pathogens = test: Broth microdilution MIC, respiratory/skin pathogens (Table 12)
[2] = system: Viridans group streptococci; test: Broth microdilution MIC by tetracycline resistance phenotype (Table 10); format: cell-based; parameters: unit not given beside the values
[3] = system: E. coli DH10B EC1083 TetB; test: MIC, E. coli DH10B recombinantly expressing tetracycline-resistance gene; settings: arabinose-induced, ampicillin in medium
[4] = Preliminary pharmacokinetics in Sprague Dawley rats; settings: rat, in vivo, po; Sprague Dawley rats (n = 3), initial preliminary testing; read-out: oral bioavailability (% F)
[5] = system: S. pneumoniae strain SP514; test: Immunocompetent CD-1 murine lung infection model; format: in vivo; settings: immunocompetent CD-1 mice, SP514, orally dosed 30 mg/kg at 5, 24 and 36 hours post-infection (FIG. 2)
Description: Compound 102 was tested in an immunocompetent CD-1 murine model of lung infection challenged with S. pneumoniae strain SP514.

[6] = system: evaluated pathogens by tetracycline phenotype; test: Broth microdilution MIC by tetracycline phenotype (Table 14)
[7] = system: Gram-negative respiratory pathogens; test: Broth microdilution MIC, respiratory pathogens; format: cell-based; settings: generally
[8] = Non-GLP monkey pharmacokinetics; format: in vivo; settings: cynomolgus monkeys; for half-life: read-out: T½ (converted)
Description: As a result of promising pharmacokinetic data in Sprague Dawley rats,^a Compound 102 was evaluated in 3 non-naîve cynomolgus monkeys. […] Nine to ten plasma samples were drawn for each dosing route up to 24 hours into heparin-coated vacutainer tubes. Dose formulations were verified with a 5-point calibration curve. The plasma concentration of the compound was quantified by LC/MS/MS using an internal standard. Quality control (QC) samples (low, medium, high; minimum of 6 standards with LLOQ<3 ng/mL) and standard curves (in duplicate) were included in the bioanalytical run. WinNonLin was used to determine individual and mean PK parameters±standard deviation (F, Cmax, Tmax, T½, CL, Vss, AUC(0-t), AUC(0-∞), and MRT).

E. coli DH10B EC969 TetM = test: MIC, E. coli DH10B recombinantly expressing tetracycline-resistance gene; settings: arabinose-induced, ampicillin in medium
[9] = Enterococcus faecium, E. faecium, TET NS, N=40
[10] = Enterococcus faecium, E. faecium, TET S, N=60
[11] = Streptococcus agalactiae, S. agalactiae, TET NS, N=39
[12] = Streptococcus agalactiae, S. agalactiae, TET S, N=11
[13] = Streptococcus pneumoniae, S. pneumoniae, TET NS, N=46
[14] = Streptococcus pneumoniae, S. pneumoniae, TET S, N=54
[15] = Streptococcus pyogenes, S. pyogenes, TET S, N=44
[16] = cynomolgus monkey, plasma, IV 1 mg/kg, average of 3
[17] = cynomolgus monkey, plasma, PO 10 mg/kg, average of 3

CN(C)[C@@H]1C(O)=C(C(N)=O)C(=O)[C@@]2(O)C(O)=C3C(=O)c4c(O)c5c(c(F)c4C[C@H]3C[C@@H]12)CN(C(C)(C)C)C5 [Compound 102]
evaluated isolates with MBC:MIC ratio >2 [1]: 89.3%
mode of action from MBC:MIC ratios [1]: bacteriostatic mode of action
MBC:MIC ([1]; Acinetobacter lwoffii isolate 2919857): 4
MBC:MIC ([1]; Acinetobacter lwoffii isolate 2919860): 128
MBC:MIC ([1]; Acinetobacter lwoffii isolate 2919873): 1
MBC:MIC ([1]; Acinetobacter lwoffii isolate 2919875): 4
MBC:MIC ([1]; Enierobacter cloacae isolate 2920082): 4
MBC:MIC ([1]; Enterobacter aerogenes isolate 2919897): 2
MBC:MIC ([1]; Enterobacter aerogenes isolate 2919900): 8
MBC:MIC ([1]; Enterobacter aerogenes isolate 2919909): 4
MBC:MIC ([1]; Enterobacter aerogenes isolate 2919913): 16
MBC:MIC ([1]; Enterobacter cloacae isolate 2920072): 2
MBC:MIC ([1]; Enterobacter cloacae isolate 2920119): 1
MBC:MIC ([1]; Escherichia coli isolate 2921525): >16
MBC:MIC ([1]; Escherichia coli isolate 2921576): 8
MBC:MIC ([1]; Klebsiella oxytoca isolate 2919956): 8
MBC:MIC ([1]; Klebsiella oxytoca isolate 2919964): 4
MBC:MIC ([1]; Klebsiella oxytoca isolate 2919972): 2
MBC:MIC ([1]; Klebsiella oxytoca isolate 2919983): 8
MBC:MIC ([1]; Klebsiella pneumonia isolate 2921528): >8
MBC:MIC ([1]; Klebsiella pneumoniae isolate 2921529): >8
MBC:MIC ([1]; Morganella morganii isolate 2919931): >4
MBC:MIC ([1]; Morganella morganii isolate 2919935): >4
MBC:MIC ([1]; Morganella morganii isolate 2919945): >2
MBC:MIC ([1]; Proteus vulgaris isolate 2919822): >1
MBC:MIC ([1]; Proteus vulgaris isolate 2919827): >2
MBC:MIC ([1]; Proteus vulgaris isolate 2919835): >4
MBC:MIC ([1]; Proteus vulgaris isolate 2919836): 4
MBC:MIC ([1]; Salmonella species isolate 2919986): 4
MBC:MIC ([1]; Salmonella species isolate 2919990): 4
MBC:MIC ([1]; Salmonella species isolate 2920006): 4
MBC:MIC ([1]; Salmonella species isolate 2920008): 4
MBC:MIC ([1]; Serratia marcescens isolate 2920092): 4
MBC:MIC ([1]; Serratia marcescens isolate 2920094): >4
MBC:MIC ([1]; Serratia marcescens isolate 2920100): 2
MBC:MIC ([1]; Serratia marcescens isolate 2920109): 4
MBC:MIC ([1]; Shigella species isolate 2919892): 4
MBC:MIC ([1]; Shigella species isolate 2919894): 16
MBC:MIC ([1]; Shigella species isolate 2920018): 2
MBC:MIC ([1]; Shigella species isolate 2920026): 32
MBC:MIC ([1]; Shigella species isolate 2920028): 8
MBC:MIC ([1]; Staphylococcus aureus isolate 2919648): >16
MBC:MIC ([1]; Staphylococcus aureus isolate 2919649): >16
MBC:MIC ([1]; Staphylococcus aureus isolate 2919650): >16
MBC:MIC ([1]; Stenotrophomonas maltophilia isolate 2920035): >8
MBC:MIC ([1]; Stenotrophomonas maltophilia isolate 2920051): 8
MBC:MIC ([1]; Streptococcus anginosus isolate 2919722): 8
MBC:MIC ([1]; Streptococcus anginosus isolate 2919742): 16
MBC:MIC ([1]; Streptococcus anginosus isolate 2919797): 8
MBC:MIC ([1]; Streptococcus intermedius isolate 2919756): 16
MBC:MIC ([1]; Streptococcus intermedius isolate 2919759): 64
MBC:MIC ([1]; Streptococcus intermedius isolate 2919784): 16
MBC:MIC ([1]; Streptococcus intermedius isolate 2919819): 4
MBC:MIC ([1]; Streptococcus mitis isolate 2919763): 4
MBC:MIC ([1]; Streptococcus mitis isolate 2919781): 1
MBC:MIC ([1]; Streptococcus mitis isolate 2919798): 1
MBC:MIC ([1]; Streptococcus mitis isolate 2919803): 8
MBC:MIC ([1]; Streptococcus sanguis isolate 2919749): 4
MBC:MIC ([1]; Streptococcus sanguis isolate 2919752): 2
MBC:MIC ([1]; Streptococcus sanguis isolate 2919758): 16
log10 reduction in CFU versus the 72 hour untreated control, IV (H. influenzae HI551; 25 mg/kg IV at 5, 24 and 48 hours): 3.40±0.31 log10
log10 reduction in CFU versus the 72 hour untreated control, oral (H. influenzae HI551; 100 mg/kg orally at 5, 24, 48 hours (FIG. 4)): 2.93±0.27 log10
responders at 3 mg/kg (S. aureus Smith; iv, read-out: Percent survival at 48 hours, IV (3 mg/kg)): 100%
responders at 30 mg/kg (S. aureus Smith; po, read-out: Percent survival at 48 hours, PO (30 mg/kg)): 83%
MICs, fold higher than those of tigecycline (Gram-positive pathogens; Gram-positive aerobic pathogens, generally): 2-4 fold
MICs relative to tetracycline (Gram-positive pathogens; pneumococci and beta-hemolytic streptococci): several-fold lower than those of tetracycline
MICs relative to tetracycline (Gram-positive pathogens; staphylococci): comparable to those of tetracycline
MIC50 ([2]; TET NS, n=32): 0.12
MIC90 ([2]; TET NS, n=32): 0.25
MIC50 ([2]; TET S, n=65): 0.06
MIC90 ([2]; TET S, n=65): 0.12
MIC EC1083 TetB [3]: 1
bioavailability [4]: 48.3%
log10 reduction in CFU versus the 48 hour untreated control [5]: 6.14+/−0.66 log10
MICs, fold higher against tetracycline resistant isolates relative to tetracycline susceptible isolates [6]: 2-4 fold
MIC50 [6, 9]: 0.25 µg/mL (≈ 0.472 µM)
MIC90 [6, 9]: 0.5 µg/mL (≈ 0.944 µM)
MIC50 [6, 10]: 0.12 µg/mL (≈ 0.227 µM)
MIC90 [6, 10]: 0.12 µg/mL (≈ 0.227 µM)
MIC50 ([6]; F. faecalis, TET NS, N=71): 0.5 µg/mL (≈ 0.944 µM)
MIC90 ([6]; F. faecalis, TET NS, N=71): 1 µg/mL (≈ 1.89 µM)
MIC50 ([6]; F. faecalis, TET S, N=30): 0.12 µg/mL (≈ 0.227 µM)
MIC90 ([6]; F. faecalis, TET S, N=30): 0.25 µg/mL (≈ 0.472 µM)
MIC50 [6, 11]: 0.5 µg/mL (≈ 0.944 µM)
MIC90 [6, 11]: 0.5 µg/mL (≈ 0.944 µM)
MIC50 [6, 12]: 0.12 µg/mL (≈ 0.227 µM)
MIC90 [6, 12]: 0.12 µg/mL (≈ 0.227 µM)
MIC50 [6, 13]: 0.12 µg/mL (≈ 0.227 µM)
MIC90 [6, 13]: 0.12 µg/mL (≈ 0.227 µM)
MIC50 [6, 14]: 0.06 µg/mL (≈ 0.113 µM)
MIC90 [6, 14]: 0.12 µg/mL (≈ 0.227 µM)
MIC50 ([6]; Streptococcus pyogenes, S. pyogenes, TET NS, N=6): 0.25 µg/mL (≈ 0.472 µM)
MIC50 [6, 15]: 0.12 µg/mL (≈ 0.227 µM)
MIC90 [6, 15]: 0.12 µg/mL (≈ 0.227 µM)
MICs, fold higher than those of tigecycline [7]: 2-4 fold
AUC(0-inf) [8, 16]: 9310 ng·h/mL
AUC(0-t) [8, 16]: 4850 ng·h/mL
clearance [8, 16]: 1.86 mL/min/kg
half-life [8, 16]: 23.3 h
Vd ([8]; cynomolgus monkey, plasma, IV 1 mg/kg, average of 3, read-out: Vdss): 3.4 L/kg
bioavailability ([8]; cynomolgus monkey, plasma, PO 10 mg/kg vs IV 1 mg/kg): 33.7%
AUC(0-inf) [8, 17]: 35400 ng·h/mL
AUC(0-t) [8, 17]: 16300 ng·h/mL
Cmax [8, 17]: 1260 ng/mL
Tmax [8, 17]: 4 h
half-life [8, 17]: 24.8 h
Co ([8]; IV 1 mg/kg, average of 3): 3170 ng/mL
MIC EC969 TetM (E. coli DH10B EC969 TetM): 1
